The values that follow come from ChEMBL document CHEMBL1201862, “PubChem BioAssay data set” (2004).

The source made the active and inactive calls. A value given as a limit tells only on which side of the number the result lay.

What all share (format): functional
Test [1] concerns the target T1, Microphthalmia-associated transcription factor (Homo sapiens, UniProt O75030).
T1 sequence (O75030 whole entry): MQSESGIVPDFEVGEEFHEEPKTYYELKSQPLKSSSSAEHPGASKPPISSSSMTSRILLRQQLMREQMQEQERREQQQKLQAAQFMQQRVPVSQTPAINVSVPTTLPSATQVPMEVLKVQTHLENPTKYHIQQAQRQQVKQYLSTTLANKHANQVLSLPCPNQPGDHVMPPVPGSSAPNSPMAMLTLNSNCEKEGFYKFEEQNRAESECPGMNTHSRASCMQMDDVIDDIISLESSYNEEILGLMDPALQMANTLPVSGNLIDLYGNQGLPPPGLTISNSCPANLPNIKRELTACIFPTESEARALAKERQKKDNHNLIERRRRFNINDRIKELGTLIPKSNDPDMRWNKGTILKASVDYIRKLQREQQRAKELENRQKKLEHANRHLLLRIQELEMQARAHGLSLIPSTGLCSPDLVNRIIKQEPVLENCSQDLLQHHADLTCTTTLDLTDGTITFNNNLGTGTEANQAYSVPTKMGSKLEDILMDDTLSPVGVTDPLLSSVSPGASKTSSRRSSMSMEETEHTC
The test is described as follows: TRPM1 promoter luciferase signal decrease, dose response, MITF inhibitor project, cell-based, SK-MEL-5, cherry-picked, set 3 (AID 493073).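 Further: SK-MEL-5 melanoma cells with luciferase driven by the MITF target TRPM1 promoter.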

The target of a further test is T2, Caspase-3 (Homo sapiens, UniProt P42574).
T2 sequence (P42574 whole entry): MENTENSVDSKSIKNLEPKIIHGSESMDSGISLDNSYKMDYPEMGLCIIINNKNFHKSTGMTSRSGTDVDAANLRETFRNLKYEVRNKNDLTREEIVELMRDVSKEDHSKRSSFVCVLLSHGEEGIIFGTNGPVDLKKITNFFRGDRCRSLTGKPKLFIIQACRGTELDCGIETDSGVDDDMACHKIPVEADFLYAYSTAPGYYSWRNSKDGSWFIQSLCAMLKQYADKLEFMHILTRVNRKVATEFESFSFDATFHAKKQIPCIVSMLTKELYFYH
The test is described as follows: SAR Analysis of small molecule inhibitors of Sentrin-specific proteases (SENPs) using a Caspase-3 Selectivity assay. [Related pubchem assays (depositor defined):AID2540, AID2599, AID434973, AID489001].

Test [2] in a line: HeLa cell cytotoxicity, dose response, cytotoxicity control for MgcRacGAP inhibitor project (AID 624300).
Test [3] concerns the target T3, Sphingosine 1-phosphate receptor 4 (Homo sapiens, UniProt O95977).
T3 sequence (O95977 whole entry): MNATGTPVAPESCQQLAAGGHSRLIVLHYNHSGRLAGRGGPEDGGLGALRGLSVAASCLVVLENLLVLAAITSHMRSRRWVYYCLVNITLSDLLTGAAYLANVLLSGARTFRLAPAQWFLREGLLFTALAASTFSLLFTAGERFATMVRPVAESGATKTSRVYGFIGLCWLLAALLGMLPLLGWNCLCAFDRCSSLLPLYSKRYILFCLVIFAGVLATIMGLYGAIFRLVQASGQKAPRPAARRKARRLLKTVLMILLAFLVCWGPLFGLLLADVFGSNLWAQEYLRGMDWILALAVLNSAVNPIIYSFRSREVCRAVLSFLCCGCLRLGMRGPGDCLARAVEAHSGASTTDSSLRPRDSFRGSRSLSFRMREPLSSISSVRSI
The test is described as follows: Fluorescence dose response cell-based high throughput screening assay for antagonists of the Sphingosine 1-Phosphate Receptor 4 (S1P4). [Related pubchem assays: 1524 (Confirmation in triplicates.), 1510 (Primary screen.)].

A further test deals with T4, Protein RecA (Mycobacterium tuberculosis, UniProt P9WHJ3).
T4 sequence (P9WHJ3 whole entry): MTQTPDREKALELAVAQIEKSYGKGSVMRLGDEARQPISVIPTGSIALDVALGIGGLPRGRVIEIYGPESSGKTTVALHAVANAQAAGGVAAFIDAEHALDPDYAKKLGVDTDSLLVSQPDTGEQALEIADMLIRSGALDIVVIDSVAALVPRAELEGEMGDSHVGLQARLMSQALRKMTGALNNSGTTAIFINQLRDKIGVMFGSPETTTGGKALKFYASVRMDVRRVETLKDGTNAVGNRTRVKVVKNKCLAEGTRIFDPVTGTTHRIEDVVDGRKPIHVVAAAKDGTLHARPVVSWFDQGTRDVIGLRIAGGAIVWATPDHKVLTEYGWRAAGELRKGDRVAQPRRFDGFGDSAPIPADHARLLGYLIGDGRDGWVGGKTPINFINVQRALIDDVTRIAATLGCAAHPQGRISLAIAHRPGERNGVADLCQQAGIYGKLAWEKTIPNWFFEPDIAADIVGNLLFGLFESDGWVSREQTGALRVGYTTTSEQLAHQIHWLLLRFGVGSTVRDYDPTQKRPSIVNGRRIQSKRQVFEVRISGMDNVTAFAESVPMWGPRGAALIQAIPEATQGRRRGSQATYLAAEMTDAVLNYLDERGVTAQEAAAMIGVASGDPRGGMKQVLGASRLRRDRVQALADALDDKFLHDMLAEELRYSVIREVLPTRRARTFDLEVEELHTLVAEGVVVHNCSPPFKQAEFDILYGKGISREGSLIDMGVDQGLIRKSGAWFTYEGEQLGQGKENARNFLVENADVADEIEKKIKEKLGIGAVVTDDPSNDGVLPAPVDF
The test is described as follows: Fluorescence Cell-Free Homogeneous Dose Retest to Identify Inhibitors of RecA-Intein Splicing Activity. [Related pubchem assays (depositor defined):AID2097, AID2223, AID489010, AID492950].

Broadly, the AC50 is the concentration giving half of the maximal activity seen. Take `Cc1ccc(C)c(S(=O)(=O)N2CCN(Cc3ccc(O)c4ncccc34)CC2)c1`: the AC50 in test [1] was 4.44 µM (active). Usually IC50 stands for the midpoint of a concentration-inhibition curve. Broadly, the CC50 is the concentration giving 50% cytotoxicity. Turning to `Oc1ccc(/C=N\Nc2cc(N3CCOCC3)nc(N3CCOCC3)n2)c(O)c1`, the IC50 on Caspase-3 is > 99 µM (inactive). The CC50 in test [2] was 100 µM (active).

Broadly, the EC50 is the midpoint of the concentration-response curve. As to `COc1cc(NC(=O)Cn2ncc(Cl)c(Cl)c2=O)c(C)cc1[N+](=O)[O-]`, the IC50 in test [3] is 1.32 µM (active). Moreover, the EC50 at Protein RecA is 8.7 µM (active).
